Assay results published in ChEMBL document CHEMBL1759900, “Inhibition of nitric oxide production in lipopolysaccharide-stimulated RAW264.7 macrophage cells by lignans isolated from Euonymus alatus leaves and twigs” (Bioorg Med Chem Lett, 2011).

test system: RAW264.7; test: Inhibition of LPS-induced nitric oxide production in mouse RAW264.7 cells preincubated with compound for 1 hr before exposure to LPS measured after 24 hrs by Griess reaction method; format: functional, cell-based

IC50 [µM] | SMILES
58.2 | COc1cc([C@H](O)[C@H](CO)Oc2c(OC)cc(/C=C/CO)cc2OC)ccc1O
63.4 | COc1cc([C@@H](O)[C@@H](CO)Oc2ccc(CCCO)cc2OC)ccc1O
41.9 | COc1cc(CC(CO)OC(CO)C(OC)c2cc(OC)c(O)c(OC)c2)ccc1O (stereo not given)
55.5 | COc1cc([C@@H]2c3c(cc(OC)c(O)c3OC)C[C@@H](CO)[C@@H]2CO)cc(OC)c1O
11.7 | COc1cc([C@H]2Oc3c(OC)cc(/C=C/CO)cc3[C@@H]2CO)cc(OC)c1O
63.6 | COc1cc([C@@H](O)[C@H](CO)Oc2ccc(/C=C/CO)cc2OC)ccc1O
57.9 | COc1cc([C@H](O)[C@@H](CO)Oc2c(OC)cc(/C=C/CO)cc2OC)cc(OC)c1O
69.2 | COc1cc([C@H](O)[C@H](CO)Oc2ccc(CCCO)cc2OC)ccc1O
15.8 | COc1cc([C@H]2OC[C@H]3[C@@H]2CO[C@@H]3c2cc(OC)c(OC)c(OC)c2)cc(OC)c1O
21.3 | COc1cc(C(O)C(CO)Oc2c(OC)cc(C3Oc4c(OC)cc(/C=C/CO)cc4C3CO)cc2OC)ccc1O (stereo not given)
12.8 | COc1cc([C@@H]2Oc3c(OC)cc(/C=C/CO)cc3[C@H]2CO)cc(OC)c1O
9.3 | COc1cc([C@H]2Oc3c(OC)cc(/C=C/CO)cc3[C@@H]2CO)ccc1O
66.4 | COc1cc([C@H](O)[C@@H](CO)Oc2ccc(/C=C/CO)cc2OC)ccc1O
44.3 | COc1cc(C(OC)C(CO)OC(CO)Cc2cc(OC)c(O)c(OC)c2)ccc1O (single isomer, unassigned; (-))
8.5 | COc1cc([C@@H]2Oc3c(OC)cc(/C=C/CO)cc3[C@H]2CO)ccc1O [DEHYDROCONIFERYL ALCOHOL]
9.8 | COc1cc([C@H]2Oc3c(OC)cc(CCCO)cc3[C@@H]2CO)ccc1O [DIHYDRODEHYDRODICONIFERY ALCOHOL]
> 100 | COc1cc(C(O)C(CO)Oc2c(OC)cc(C3OCC4C(c5cc(OC)c(OC(CO)C(O)c6ccc(O)c(OC)c6)c(OC)c5)OCC34)cc2OC)ccc1O (stereo not given) [HEDYOTISOL B]
21.4 | COc1cc([C@H]2OC[C@H]3[C@@H]2CO[C@@H]3c2cc(OC)c(O[C@H](CO)[C@@H](O)c3ccc(O)c(OC)c3)c(OC)c2)ccc1O [HEDYOTOL C]
14.8 | COc1cc([C@H]2OC[C@H]3[C@@H]2CO[C@@H]3c2cc(OC)c(O)c(OC)c2)cc(OC)c1O [SYRINGARESINOL]

SMILES | IC50 [µM]
COC(=O)[C@@H](N)CCCNC(=N)N[N+](=O)[O-] [L-NAME] | 48.5
